We go through 17 compounds from patent US9920032B2, “Heterocyclic compounds useful as pim kinase inhibitors” (Incyte Corporation, priority 2015, dated 2018).

What is called IC50 is the concentration that inhibits the measured activity by half.

Assay type in all cases: biochemical
The target in assay [1] is Pim-3 (Homo sapiens (Human), UniProt Q86V86). As to the kind of experiment: Pim-3 kinase assay. To be noted: 1 mM ATP; read-out: PIM3 IC50. As for the experimental part:
(§1) Pim-1 and Pim-3 kinase assays—20 μL reactions were run in white 384 well polystyrene plates dotted with 0.8 μL compound/DMSO in the assay buffer (50 mM Tris, pH 7.5, 0.01% Tween-20, 5 mM mgCl2, 0.01% BSA, 5 mM DTT), containing 0.05 μM Biotin-labeled BAD peptide substrate (AnaSpec 62269), 1 mM ATP, and 2.5 pM (Pim-1, Invitrogen PV3503) or 1.25 pM (Pim-3, Millipore 14-738) enzyme for 1 h at 25° C. Reactions were stopped by addition of 10 μL STOP Buffer (150 mM Tris, pH=7.5, 150 mM NaCl, 75 mM EDTA, 0.01% Tween-20, 0.3% BSA,) supplemented with Phospho-Bad (Ser112) Antibody (Cell Signaling 9291) diluted 666-fold, and Streptavidin donor beads (PerkinElmer 6760002) along with Protein-A acceptor beads (PerkinElmer 6760137) at […]. Supplementation of the STOP buffer with beads and stopping the reactions were done under reduced light. Prior to the stopping reactions STOP buffer with beads was preincubated for 1 h in the dark at room temperature. After stopping the reactions, plates were incubated for 1 h in the dark at room temperature before reading on a PHERAstar FS plate reader (BMG Labtech) under reduced light.

The target of assay [2] is Pim-1 (Homo sapiens (Human), UniProt P11309). As to the kind of experiment: Pim-1 kinase assay. To be noted: 1 mM ATP; read-out: PIM1 IC50. As for the experimental part:
as §1

The target of assay [3] is Pim-2 (Homo sapiens (Human), UniProt Q9P1W9). The assay is described as follows: Pim-2 kinase assay. To be noted: 1 mM ATP; read-out: PIM2 IC50. As for the experimental part:
Pim-2 kinase assay—20 μL reactions were run in white 384 well polystyrene plates dotted with 0.8 μL compound/DMSO in the assay buffer (50 mM Tris, pH 7.5, 0.01% Tween-20, 5 mM mgCl2, 0.01% BSA, 5 mM DTT), containing 0.05 μM Fluorescein-labeled CREBtide peptide substrate (Invitrogen PV3508), 1 mM ATP, and 1 nM enzyme (Invitrogen PV3649) for 2 h at 25° C. Reactions were stopped by addition of 10 μL TR-FRET Dilution Buffer (Invitrogen PV3574) with 30 mM EDTA and 1.5 nM LanthaScreen Tb-CREB pSer133 antibody (Invitrogen PV3566). After 30 min. incubation at room temperature, plates were read on a PHERAstar FS plate reader (BMG Labtech).

Where only a bound is given, the exact number is not on record here.

Chain of Pim-2 (Q9P1W9 whole entry): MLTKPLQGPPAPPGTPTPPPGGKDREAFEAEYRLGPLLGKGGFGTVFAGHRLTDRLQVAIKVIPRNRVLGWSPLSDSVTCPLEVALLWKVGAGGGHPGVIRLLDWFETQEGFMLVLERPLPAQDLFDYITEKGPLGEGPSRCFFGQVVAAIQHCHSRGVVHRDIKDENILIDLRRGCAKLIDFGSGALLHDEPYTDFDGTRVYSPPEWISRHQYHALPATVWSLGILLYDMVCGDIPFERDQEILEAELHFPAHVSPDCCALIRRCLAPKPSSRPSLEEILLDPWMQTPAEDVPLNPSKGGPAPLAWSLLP
Chain of Pim-1 (P11309 whole entry): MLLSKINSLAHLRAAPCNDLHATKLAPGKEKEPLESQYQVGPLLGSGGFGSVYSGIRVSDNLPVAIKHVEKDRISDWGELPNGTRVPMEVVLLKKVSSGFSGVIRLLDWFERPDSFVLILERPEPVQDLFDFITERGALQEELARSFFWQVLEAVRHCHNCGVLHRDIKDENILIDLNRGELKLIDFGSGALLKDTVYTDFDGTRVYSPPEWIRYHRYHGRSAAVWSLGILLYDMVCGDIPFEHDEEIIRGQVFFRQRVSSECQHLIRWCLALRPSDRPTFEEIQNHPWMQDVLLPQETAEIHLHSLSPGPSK

Turning to `CCN(C)c1cnc2c(C(=O)Nc3cnccc3[C@@H]3C[C@H](C)C[C@H](N)C3)ccc(F)c2c1` [Example 20, N-(4-((1R,3S,5S)-3-Amino-5-methylcyclohexyl)pyridin-3-yl)-3-(ethyl(methyl)amino)-5-fluoroquinoline-8-carboxamide], the IC50 in assay [1] was not above 10 nM; in assay [2], not above 10 nM; in assay [3], not above 100 nM.
On to `C[C@@H]1C[C@H](N)C[C@H](c2ccncc2NC(=O)c2ccc(F)c3cc(N4CCCC[C@@H]4C)cnc23)C1` [Example 170, N-(4-((1R,3S,5S)-3-Amino-5-methylcyclohexyl)pyridin-3-yl)-5-fluoro-3-((S)-2-methylpiperidin-1-yl)quinoline-8-carboxamide], for which the IC50 was 10 to 50 nM in assay [1], not above 10 nM in assay [2] and 100 to 1000 nM in assay [3].
For the compound `C[C@@H]1C[C@H](N)C[C@H](c2ccncc2NC(=O)c2cccc3cc(N4CCC[C@H]4C)cnc23)C1` [Example 68, N-(4-((1R,3S,5S)-3-Amino-5-methylcyclohexyl)pyridin-3-yl)-3-((R)-2-methylpyrrolidin-1-yl)quinoline-8-carboxamide], the half-maximal inhibitory concentration (IC50) is not above 10 nM in assay [1], not above 10 nM in assay [2] and not above 100 nM in assay [3].
Consider `CO[C@@H]1CCN(c2cnc3c(C(=O)Nc4cnccc4[C@@H]4C[C@H](C)C[C@H](N)C4)ccc(F)c3c2)C[C@H]1F` [Example 162, N-(4-((1R,3S,5S)-3-Amino-5-methylcyclohexyl)pyridin-3-yl)-5-fluoro-3-((3R,4R)-3-fluoro-4-methoxypiperidin-1-yl)quinoline-8-carboxamide], for which the IC50 in assay [1] is not above 10 nM; in assay [2], not above 10 nM; in assay [3], not above 100 nM.
With `C[C@@H]1C[C@H](N)C[C@H](c2ccncc2NC(=O)c2ccc(F)c3cc(N4C5CCC4CC(O)C5)cnc23)C1` (stereo partly drawn) [Example 98, N-(4-((1R,3S,5S)-3-Amino-5-methylcyclohexyl)pyridin-3-yl)-5-fluoro-3-(3-hydroxy-8-azabicyclo[3.2.1]octan-8-yl)quinoline-8-carboxamide], the half-inhibitory concentration (IC50) is not above 10 nM in assay [1], not above 10 nM in assay [2] and not above 100 nM in assay [3].
Regarding `C[C@@H]1C[C@H](N)C[C@H](c2ccncc2NC(=O)c2ccc(F)c3cc(N(C)c4ccc5nccn5c4)cnc23)C1` [Example 153], the 50% inhibitory concentration (IC50) in assay [1] was not above 10 nM; in assay [2] it was not above 10 nM; in assay [3] it was 100 to 1000 nM.
As to `C[C@@H]1C[C@H](N)C[C@H](c2ccncc2NC(=O)c2ccc(F)c3cc(N4C5CCC4CC5)cnc23)C1` [Example 136, N-(4-((1R,3S,5S)-3-Amino-5-methylcyclohexyl)pyridin-3-yl)-3-(7-azabicyclo[2.2.1]heptan-7-yl)-5-fluoroquinoline-8-carboxamide], the IC50 was not above 10 nM in assay [1], not above 10 nM in assay [2] and not above 100 nM in assay [3].
For the compound `C[C@@H]1C[C@H](N)C[C@H](c2ccncc2NC(=O)c2ccc(F)c3cc(N4CC(=O)N5CCCC[C@@H]5C4)cnc23)C1` [Example 100, N-(4-((1R,3S,5S)-3-Amino-5-methylcyclohexyl)pyridin-3-yl)-5-fluoro-3-((R)-4-oxodihydro-1H-pyrido[1,2-a]pyrazin-2(6H,7H,8H,9H,9aH)-yl)quinoline-8-carboxamide], the IC50 in assay [1] is not above 10 nM; in assay [2] it was not above 10 nM; in assay [3], not above 100 nM.
Turning to `C[C@@H]1C[C@H](N)C[C@H](c2ccncc2NC(=O)c2ccc(F)c3cc(N(C)C)cnc23)C1` [Example 25, N-{4-[(1R,3S,5S)-3-Amino-5-methylcyclohexyl]pyridin-3-yl}-3-(dimethylamino)-5-fluoroquinoline-8-carboxamide], the values for the half-inhibitory concentration (IC50) in assay [1], in assay [2] and in assay [3] were not above 10 nM, not above 10 nM and not above 100 nM, respectively.
For `Cc1ccc(N(C)c2cnc3c(C(=O)Nc4cnccc4[C@@H]4C[C@H](C)C[C@H](N)C4)ccc(F)c3c2)c(C)n1` [Example 141, N-(4-((1R,3S,5S)-3-Amino-5-methylcyclohexyl)pyridin-3-yl)-3-((2,6-dimethylpyridin-3-yl)(methyl)amino)-5-fluoroquinoline-8-carboxamide], the 50% inhibitory concentration (IC50) in assay [1] is not above 10 nM; in assay [2] it was not above 10 nM; in assay [3], not above 100 nM.
Regarding `CC1CN(c2cnc3c(C(=O)Nc4cnccc4[C@@H]4C[C@H](C)C[C@H](N)C4)ccc(F)c3c2)C1` [Example 111, N-(4-((1R,3S,5S)-3-Amino-5-methylcyclohexyl)pyridin-3-yl)-5-fluoro-3-(3-methylazetidin-1-yl)quinoline-8-carboxamide], the IC50 in assay [1] was not above 10 nM; in assay [2], not above 10 nM; in assay [3], not above 100 nM.
For the compound `C[C@@H]1C[C@H](N)C[C@H](c2ccncc2NC(=O)c2ccc(F)c3cc(C4CC4)cnc23)C1` [Example 13, N-{4-[(1R,3S,5S)-3-Amino-5-methylcyclohexyl]pyridin-3-yl}-3-cyclopropyl-5-fluoroquinoline-8-carboxamide], the IC50 in assay [1] is not above 10 nM; in assay [2], not above 10 nM; in assay [3], not above 100 nM.
In the case of `COC(=O)N1CCN(c2cnc3c(C(=O)Nc4cnccc4[C@@H]4C[C@H](C)C[C@H](N)C4)ccc(F)c3c2)[C@@H](C)C1` [Example 88, (S)-Methyl 4-(8-(4-((1R,3S,5S)-3-amino-5-methylcyclohexyl)pyridin-3-ylcarbamoyl)-5-fluoroquinolin-3-yl)-3-methylpiperazine-1-carboxylate], the values for the IC50 in assay [1], in assay [2] and in assay [3] were not above 10 nM, not above 10 nM and not above 100 nM, respectively.
For `C[C@@H]1C[C@H](N)C[C@H](c2ccncc2NC(=O)c2ccc(F)c3cc(N4C[C@@H](O)C[C@@H]4C)cnc23)C1` [Example 165, N-(4-((1R,3S,5S)-3-Amino-5-methylcyclohexyl)pyridin-3-yl)-5-fluoro-3-((2S,4S)-4-hydroxy-2-methylpyrrolidin-1-yl)quinoline-8-carboxamide], the IC50 in assay [1] is not above 10 nM; in assay [2], not above 10 nM; in assay [3], not above 100 nM.
For the compound `C[C@@H]1C[C@H](N)C[C@H](c2ccncc2NC(=O)c2ccc(F)c3cc(-c4c(F)cc(O)cc4F)cnc23)C1` [Example 18, N-{4-[(1R,3S,5S)-3-Amino-5-methylcyclohexyl]pyridin-3-yl}-3-(2,6-difluoro-4-hydroxyphenyl)-5-fluoroquinoline-8-carboxamide], the values for the IC50 in assay [1], in assay [2] and in assay [3] were not above 10 nM, not above 10 nM and not above 100 nM, respectively.
In the case of `CCCN(C)c1cnc2c(C(=O)Nc3cnccc3[C@@H]3C[C@H](C)C[C@H](N)C3)ccc(F)c2c1` [Example 55, N-(4-((1R,3S,5S)-3-Amino-5-methylcyclohexyl)pyridin-3-yl)-5-fluoro-3-(methyl(propyl)amino)quinoline-8-carboxamide], the concentration for half-maximal inhibition (IC50) in assay [1] was not above 10 nM; in assay [2] it was not above 10 nM; in assay [3], not above 100 nM.
As for `C[C@@H]1C[C@H](N)C[C@H](c2ccncc2NC(=O)c2ccc(F)c3cc(N4CC5COCC5C4)cnc23)C1` (stereo partly drawn) [Example 110, N-(4-((1R,3S,5S)-3-Amino-5-methylcyclohexyl)pyridin-3-yl)-3-(dihydro-1H-furo[3,4-c]pyrrol-5(3H,6H,6aH)-yl)-5-fluoroquinoline-8-carboxamide], the 50% inhibitory concentration (IC50) in assay [1] was not above 10 nM; in assay [2], not above 10 nM; in assay [3] it was not above 100 nM.
